Results taken from PubChem BioAssay AID330 (DTP/NCI, 2004).
Where “and” joins values, the source holds several entries; their conditions need not be identical. Identical values can stand only once. Toxic doses and inconclusive results are not listed.

Test system: P388 leukemia ip, CD2F1 mice, survival T/C
Assay: NCI In Vivo Anticancer Drug Screen. Data for tumor model P388 Leukemia (intraperitoneal) in CD2F1 (CDF1) mice
Settings: endpoint: median survival time, higher = longer survival
How it was run: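 Mice carrying the transplanted tumor received test compound or vehicle. Survival was recorded in each group, and the value is the treated-group measurement divided by that of the vehicle-treated control group.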

[1] = dose: 60.0 mg/kg/injection, schedule: Q01DX005 (ip), vehicle: saline with Tween-80
[2] = dose: 120.0 mg/kg/injection, schedule: Q01DX005 (ip), vehicle: saline with Tween-80
[3] = dose: 240.0 mg/kg/injection, schedule: Q01DX005 (ip), vehicle: saline with Tween-80
[4] = dose: 25.0 mg/kg/injection, schedule: Q01DX009 (ip), vehicle: saline with Tween-80
[5] = dose: 25.0 mg/kg/injection, schedule: Q01DX009 (ip), vehicle: saline
[6] = dose: 50.0 mg/kg/injection, schedule: Q01DX009 (ip), vehicle: saline with Tween-80
[7] = dose: 50.0 mg/kg/injection, schedule: Q01DX009 (ip), vehicle: saline
[8] = dose: 100.0 mg/kg/injection, schedule: Q01DX009 (ip), vehicle: saline with Tween-80
[9] = dose: 100.0 mg/kg/injection, schedule: Q01DX009 (ip), vehicle: saline
[10] = dose: 200.0 mg/kg/injection, schedule: Q01DX009 (ip), vehicle: saline with Tween-80
[11] = dose: 50.0 mg/kg/injection, schedule: Q01DX005 (ip), vehicle: saline with Tween-80
[12] = dose: 200.0 mg/kg/injection, schedule: Q01DX005 (ip), vehicle: saline with Tween-80
[13] = dose: 50.0 mg/kg/injection, schedule: Q01DX005 (ip), vehicle: Klucel (hydroxypropylcellulose) (HPC)
[14] = dose: 100.0 mg/kg/injection, schedule: Q01DX005 (ip), vehicle: Klucel (hydroxypropylcellulose) (HPC)
[15] = dose: 200.0 mg/kg/injection, schedule: Q01DX005 (ip), vehicle: Klucel (hydroxypropylcellulose) (HPC)
[16] = dose: 15.0 mg/kg/injection, schedule: Q01DX005 (ip), vehicle: saline with Tween-80
[17] = dose: 30.0 mg/kg/injection, schedule: Q01DX005 (ip), vehicle: saline with Tween-80

Nc1c(Br)cc(Br)c2c1[nH]c(=O)c1ccccc12
T/C [1]: 96 % of control
T/C [2]: 90 % of control
T/C [3]: 107 % of control

Nc1c(Cl)[nH]cnc1=S
T/C (dose: 100.0 mg/kg/injection, schedule: Q01DX009 (ip), vehicle: suspension in saline): 106 % of control
T/C (dose: 200.0 mg/kg/injection, schedule: Q01DX009 (ip), vehicle: suspension in saline): 105 % of control
T/C (dose: 400.0 mg/kg/injection, schedule: Q01DX009 (ip), vehicle: suspension in saline): 99 % of control

CN(C)CC1(C)C(=O)N(C)C(=O)N(C2CCCCC2)C1=O (stereo not drawn)
T/C [4]: 100 % of control
T/C [5]: 100 % of control
T/C [6]: 107 % of control
T/C [7]: 104 % of control and 105 % of control
T/C [8]: 107 % of control
T/C [9]: 113 % of control
T/C [10]: 117 % of control
T/C (dose: 200.0 mg/kg/injection, schedule: Q01DX009 (ip), vehicle: saline): 122 % of control

CNc1ccc(Nc2c3ccccc3nc3ccccc23)cc1
T/C (dose: 6.25 mg/kg/injection, schedule: Q04DX002 (ip), vehicle: distilled water + Tween-80): 109 % of control
T/C (dose: 12.5 mg/kg/injection, schedule: Q04DX002 (ip), vehicle: distilled water + Tween-80): 120 % of control and 124 % of control
T/C (dose: 25.0 mg/kg/injection, schedule: Q04DX002 (ip), vehicle: distilled water + Tween-80): 118 % of control
T/C (dose: 50.0 mg/kg/injection, schedule: Q04DX002 (ip), vehicle: distilled water + Tween-80): 160 % of control
T/C (dose: 100.0 mg/kg/injection, schedule: Q04DX002 (ip), vehicle: distilled water + Tween-80): 194 % of control and 232 % of control

C[Si](C)(C)n1nnn(-c2ccccc2)c1=O
T/C [6]: 99 % of control and 116 % of control
T/C [8]: 112 % of control
T/C [10]: 106 % of control

CC(C)=Cc1ccccc1C1(C)C(c2ccccc2)=C1c1ccccc1
T/C (dose: 100.0 mg/kg/injection, schedule: Q04DX002 (ip), vehicle: Klucel (hydroxypropylcellulose) (HPC)): 100 % of control
T/C (dose: 200.0 mg/kg/injection, schedule: Q04DX002 (ip), vehicle: Klucel (hydroxypropylcellulose) (HPC)): 98 % of control
T/C (dose: 400.0 mg/kg/injection, schedule: Q04DX002 (ip), vehicle: Klucel (hydroxypropylcellulose) (HPC)): 98 % of control

COc1ccc(C2c3cc4c(cc3OC(C)(OC)C2C)OCO4)c(OC)c1 (stereo not drawn)
T/C [11]: 88 % of control
T/C (dose: 100.0 mg/kg/injection, schedule: Q01DX005 (ip), vehicle: saline with Tween-80): 88 % of control
T/C [12]: 91 % of control

Cc1ccc(S(=O)(=O)SC(C)(C)C)cc1
T/C [13]: 112 % of control
T/C [14]: 112 % of control
T/C [15]: 112 % of control

O=C(NC(Cc1ccccc1)C(=O)O)OCC1c2ccccc2-c2ccccc21 (stereo not drawn)
T/C [13]: 108 % of control
T/C [14]: 105 % of control

CC(C)(C)[OH+][O-].[O-]c1ccc(Cl)cc1C=Nc1ccc(Cl)cc1[O-].[O]=[V]
T/C [16]: 100 % of control
T/C [17]: 100 % of control
T/C [1]: 101 % of control and 93 % of control

N#Cc1ccc(OC(=O)Nc2cc(Cl)cc(Cl)c2)cc1
T/C [1]: 89 % of control
T/C [2]: 106 % of control
T/C [3]: 101 % of control

Cc1ccc2c(N(CCCl)CCCl)cc(-c3ccccc3)nc2n1
T/C (dose: 50.0 mg/kg/injection, schedule: Q04DX003 (ip), vehicle: Klucel (hydroxypropylcellulose) (HPC)): 98 % of control
T/C (dose: 100.0 mg/kg/injection, schedule: Q04DX003 (ip), vehicle: Klucel (hydroxypropylcellulose) (HPC)): 100 % of control
T/C (dose: 200.0 mg/kg/injection, schedule: Q04DX003 (ip), vehicle: Klucel (hydroxypropylcellulose) (HPC)): 99 % of control

O=C(OCN1C(=O)C2C3C=CC(C2C1=O)C1C2C(=O)N(COC(=O)C4CCCN4)C(=O)C2C31)C1CCCN1 (stereo not drawn)
T/C [5]: 105 % of control and 108 % of control
T/C [7]: 108 % of control
T/C [9]: 162 % of control and 205 % of control

COC(=O)c1cccc2c(Br)cc3ccccc3c12
T/C (dose: 150.0 mg/kg/injection, schedule: Q04DX003 (ip), vehicle: Klucel (hydroxypropylcellulose) (HPC)): 95 % of control
T/C (dose: 300.0 mg/kg/injection, schedule: Q04DX003 (ip), vehicle: Klucel (hydroxypropylcellulose) (HPC)): 91 % of control

COC(=O)NP1(=O)NCc2ccccc2CN1
T/C [13]: 100 % of control
T/C [14]: 94 % of control
T/C [15]: 94 % of control

CC(C)(C#N)Nc1ccccc1
T/C (dose: 3.13 mg/kg/injection, schedule: Q04DX003 (ip), vehicle: saline with Tween-80): 87 % of control
T/C (dose: 6.25 mg/kg/injection, schedule: Q04DX003 (ip), vehicle: saline with Tween-80): 100 % of control and 95 % of control
T/C (dose: 12.5 mg/kg/injection, schedule: Q04DX003 (ip), vehicle: saline with Tween-80): 100 % of control
T/C (dose: 25.0 mg/kg/injection, schedule: Q04DX003 (ip), vehicle: saline with Tween-80): 100 % of control

CC(C)(C)N(O)c1cccc(P(c2ccccc2)c2ccccc2)c1
T/C (dose: 50.0 mg/kg/injection, schedule: Q04DX002 (ip), vehicle: saline with Tween-80): 91 % of control
T/C (dose: 100.0 mg/kg/injection, schedule: Q04DX002 (ip), vehicle: saline with Tween-80): 94 % of control
T/C (dose: 200.0 mg/kg/injection, schedule: Q04DX002 (ip), vehicle: saline with Tween-80): 100 % of control

O=[N+]([O-])c1ccc(C2CC3COc4ccccc4C3=N2)cc1 (stereo not drawn)
T/C (dose: 18.75 mg/kg/injection, schedule: Q01DX001 (ip), vehicle: Klucel (hydroxypropylcellulose) (HPC)): 88 % of control
T/C (dose: 37.5 mg/kg/injection, schedule: Q01DX001 (ip), vehicle: Klucel (hydroxypropylcellulose) (HPC)): 88 % of control
T/C (dose: 75.0 mg/kg/injection, schedule: Q01DX001 (ip), vehicle: Klucel (hydroxypropylcellulose) (HPC)): 94 % of control

CCOC(=O)N/N=C(\C)c1nc2ccccc2[nH]1
T/C [16]: 106 % of control
T/C [17]: 108 % of control
T/C (dose: 60.0 mg/kg/injection, schedule: Q01DX005 (ip), vehicle: Klucel (hydroxypropylcellulose) (HPC)): 100 % of control
T/C [1]: 101 % of control

O=C(CCC(=O)Nc1cc(Cl)ccc1Cl)CC(=O)c1ccc(Cl)cc1
T/C (dose: 60.0 mg/kg/injection, schedule: Q01DX005 (ip), vehicle: saline): 109 % of control
T/C (dose: 120.0 mg/kg/injection, schedule: Q01DX005 (ip), vehicle: saline): 106 % of control
T/C (dose: 240.0 mg/kg/injection, schedule: Q01DX005 (ip), vehicle: saline): 109 % of control

CC1(C)C2CC=C(C[P+](c3ccccc3)(c3ccccc3)c3ccccc3)C1C2 (stereo not drawn)
T/C (dose: 1.25 mg/kg/injection, schedule: Q01DX009 (ip), vehicle: saline with Tween-80): 119 % of control
T/C (dose: 2.5 mg/kg/injection, schedule: Q01DX009 (ip), vehicle: saline with Tween-80): 119 % of control

O=C(O)CC(Sc1ccc(Cl)cc1)C(=O)Nc1ccccc1 (stereo not drawn)
T/C [1]: 99 % of control
T/C [2]: 95 % of control
T/C [3]: 98 % of control

O=CNCc1ccc(S(=O)(=O)F)cc1
T/C (dose: 12.5 mg/kg/injection, schedule: Q01DX009 (ip), vehicle: other): 93 % of control
T/C (dose: 25.0 mg/kg/injection, schedule: Q01DX009 (ip), vehicle: other): 92 % of control
T/C (dose: 50.0 mg/kg/injection, schedule: Q01DX009 (ip), vehicle: other): 99 % of control
T/C (dose: 100.0 mg/kg/injection, schedule: Q01DX009 (ip), vehicle: other): 100 % of control

S=c1[nH]c(=S)c2[nH]c(=S)[nH]c2[nH]1
T/C (dose: 12.5 mg/kg/injection, schedule: Q01DX005 (ip), vehicle: saline with Tween-80): 92 % of control
T/C (dose: 25.0 mg/kg/injection, schedule: Q01DX005 (ip), vehicle: saline with Tween-80): 96 % of control
T/C [11]: 90 % of control and 95 % of control
T/C [12]: 89 % of control

C#CC(C)OCC(C)OC(C)=O (stereo not drawn)
T/C (dose: 150.0 mg/kg/injection, schedule: Q01DX009 (ip), vehicle: saline with Tween-80): 88 % of control
T/C (dose: 225.0 mg/kg/injection, schedule: Q01DX009 (ip), vehicle: saline with Tween-80): 88 % of control

CN(C)C=Nc1ccc(Cl)cc1
T/C [4]: 99 % of control
T/C [6]: 105 % of control

CCCCSc1nn(CCC#N)c(=O)[nH]c1=O
T/C (dose: 25.0 mg/kg/injection, schedule: Q01DX005 (ip), vehicle: water): 98 % of control
T/C (dose: 50.0 mg/kg/injection, schedule: Q01DX005 (ip), vehicle: water): 100 % of control
T/C (dose: 100.0 mg/kg/injection, schedule: Q01DX005 (ip), vehicle: water): 103 % of control
T/C (dose: 200.0 mg/kg/injection, schedule: Q01DX005 (ip), vehicle: water): 100 % of control
